Laboratory results from patent publication US20260209220A1, “SUBSTITUTED TETRAHYDROPYRROLO-PYRIDINONE COMPOUNDS AND THEIR USE IN TREATING MEDICAL CONDITIONS” (Karuna Therapeutics, Inc., priority 2022, published 2026).

biological target: T1, human M4 receptor (Homo sapiens, UniProt P08173); assay: M4 GTPγS PAM assay (CHO-K1 membranes, 35S-GTP binding, with EC20 acetylcholine); type: biochemical; settings: with EC20 acetylcholine (40 nM)
T1 construct: expressed in transfected cells; host or cells: CHO-K1 cells (membranes)
T1 sequence (P08173 1-479): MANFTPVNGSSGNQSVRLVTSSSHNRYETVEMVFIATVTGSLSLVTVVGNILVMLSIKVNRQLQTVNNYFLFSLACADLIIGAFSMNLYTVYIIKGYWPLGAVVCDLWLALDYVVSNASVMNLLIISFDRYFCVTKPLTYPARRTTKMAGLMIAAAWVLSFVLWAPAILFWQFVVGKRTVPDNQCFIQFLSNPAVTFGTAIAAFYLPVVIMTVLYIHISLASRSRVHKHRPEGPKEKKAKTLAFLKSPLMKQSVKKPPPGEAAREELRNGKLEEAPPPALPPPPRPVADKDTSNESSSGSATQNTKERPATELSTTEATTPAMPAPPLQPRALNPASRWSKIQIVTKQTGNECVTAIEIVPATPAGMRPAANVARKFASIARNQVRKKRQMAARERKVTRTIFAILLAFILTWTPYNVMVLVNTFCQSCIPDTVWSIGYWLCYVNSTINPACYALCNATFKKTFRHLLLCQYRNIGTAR
Outline: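 Membranes from CHO-K1 cells stably expressing human M4 ([…]) in 20 mM HEPES, 10 mM MgCl2, 100 mM NaCl, with 0.1 μM GDP final, were preincubated with compound 10-15 min at RT. Acetylcholine at EC20 (40 nM final) was added for 10-15 min, then 0.4 nM 35S-GTP solution for 1 h at RT. Filter-bound radioactivity was counted.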

EC50 | SMILES
< 50 nM | Cc1c2c(n(C)c(=O)c1F)CN(C(=O)CC1CN(c3ccc(C4CC4)c(F)c3)C1)C2 [Compound I-88]
50 to 200 nM | Cc1cc(=O)n(C)c2c1CN(C(=O)CC1CN(c3cccc(F)c3F)C1)C2 [Compound I-14]
< 50 nM | Cc1c2c(n(C)c(=O)c1C)CN(C(=O)CC1CN(c3ccnc(C(F)(F)F)c3)C1)C2 [Compound I-42, 1,3,4-Trimethyl-6-(2-(1-(2-(trifluoromethyl)pyridin-4-yl)azetidin-3-yl)acetyl)-1,5,6,7-tetrahydro-2H-pyrrolo[3,4-b]pyridin-2-one]
< 50 nM | Cc1cc(=O)n(C)c2c1CN(C(=O)CC1CN(c3cc(F)cc(C4CC4)c3)C1)C2 [Compound I-4]
